Tests used:
Type in all cases: cell-based
panel of 50 cell lines = assay: Sensitivity of cell line panel by gene mutation status
Excerpt: We examined the anti-proliferation activity of a MEK inhibitor, trametinib, and an ERK1/2 inhibitor, SCH772984, in a panel of […] (see Table 1).
We divided the 63 cell lines into sensitive, insensitive, and uncertain groups according to their IC50's for SCH772984 and Trametinib, respectively, then detected genes with differential expression or different mutation types between sensitive and insensitive groups. These genes were enriched in several cancer related pathways.
The 63 cell lines were divided into 3 groups (See Table 1): a sensitive group (IC50 values were less than 1), an insensitive group (IC50 values are greater than 10), and an uncertain group (the rest). Accordingly, we got 25 sensitive and 22 insensitive cell lines for SCH772984, and 34 sensitive and 24 insensitive cell lines for Trametinib. Only cell lines with genomic data were used in subsequent analysis. The differentially expressed genes and enriched pathways were analysed using GSEA software, the genes with different mutation types were detected using Fisher's exact test.
29 sensitive and 20 insensitive cell lines have mutation information, and ADAM12, COL14A1, TNN and TP53 were identified by P-value cutoff of 0.01 (See Table 3 and FIG. 1-5).
21 sensitive and 18 insensitive cell lines have mutation information, and ADAM12, PEX5L, TNN and TP53 were identified by P-value cutoff of 0.01 (See Table 3 and FIGS. 6-10).

KM12L4 = assay: CellTiter-Glo cell viability, IC50 determination; conditions: KM 12L4, 72 h; KM12L4 cell line; 3-day CTG assay; read-out: Absolute IC50
Procedure: (§1) All the cells will be cultured in the media supplemented with 10% FBS except for which are marked specially, in the temperature of 37° C., 5% CO2 and 95% humidity.
(§2) Cell viability is assayed by using CellTiter-Glo® Luminescent Cell Viability Assay Kit (Cat. No.: G7572, Promega. Store at −20° C.). To prepare the CellTiter_Glo Reagent, the CellTiter-Glo Buffer was thawed and equilibrated to room temperature prior to use. For convenience the CellTiter-Glo Buffer may be thawed and stored at room temperature for up to 48 hours prior to use. The lyophilized CellTiter-Glo Substrate is equilibrated to room temperature prior to use. The appropriate volume (100 ml) of CellTiter-Glo Buffer is transferred into the amber bottle containing CellTiter-Glo Substrate to reconstitute the lyophilized enzyme/substrate mixture, which forms the CellTiter-Glo Reagent. In certain cases, the entire liquid volume of the CellTiter-Glo Buffer bottle may be added to the CellTiter-Glo Substrate vial. Mix by gently vortexing, swirling or by inverting the contents to obtain a homogeneous solution. The CellTiter-Glo Substrate should go into solution easily in less than one minute.
(§3) The day before the experiment (Day −1), cells were dissociated during the logarithmic growth period with Cell Disassociation Buffer (Gibco 13151-014) and mixed with appropriate cell media and centrifuge at 1000 rpm for 3 minutes. The cells were re-suspended and counted using Countstar before adjusting cell concentrations to optimized density (i.e. 4.44×10^4 cells/ml) with respective culture medium listed in Table 1 for 3-day CTG assay (The cell density was optimized before actual study; cell density used in the test may vary for different cell lines). 90 μl cell suspensions were added to two 96-well plates (plates A and B) with the final cell density of 4×10^3 cells/well for 3-day CTG assay (the cell density was optimized before actual study; cell density used in the test may vary for different cell lines). The plate A and B group were incubated for overnight in humidified incubator at 37° C. with 5% CO2.
(§4) On Day 0, for plate A group, 10 μl culture medium was added to each well for T0 reading. CellTiter-Glo® Reagent was added at equal volume of cell culture medium present in each well (e.g., add 100 μl of reagent to 100 μl of medium containing cells for a 96-well plate). Contents were mixed for 2 minutes on an orbital shaker to facilitate cell lysis. The plate was allowed to incubate at room temperature for 10 minutes to stabilize luminescent signal. Backseal black sticker was added to the bottom of each plate. Luminescence was recorded using EnVision Multi Label Reader. This formed the basis for T0 value.
(§5) On Day 0, the test articles and positive controls were dissolved at the concentration indicated at Test Article Dilution map. 100× solution in PBS was prepared and then diluted with appropriate culture media (1:10) into 10×working solutions. 10 μl (10×) drug solutions were dispensed in each well (triplicate for each drug concentration) of the plate B group according to plate inoculation map. The test plates were incubated for […] in the humidified incubator at 37° with 5% CO2.
(§6) On Day 3, CellTiter-Glo® Reagent was added at equal volume of cell culture medium present in each well (e.g., add 100 μl of reagent to 100 μl of medium containing cells for a 96-well plate). Contents were mixed for 2 minutes on an orbital shaker to induce cell lysis. The plate was allowed to incubate at room temperature for 10 minutes to stabilize luminescent signal. Backseal black sticker was placed to the bottom of each plate. Luminescence was recorded using EnVision Multi Label Reader.
(§7) In order to calculate IC50s, a dose-response curve was fitted using a nonlinear regression model with a sigmoidal dose response. The formula for calculating surviving rate was shown below; Absolute IC50 is calculated where Y axis set at 50% using GraphPad Prism 5.0. Software. […]

BxPc-3 = assay: CellTiter-Glo cell viability, IC50 determination; conditions: Homo sapiens, 72 h; BxPc-3 cell line; 3-day CTG assay; read-out: Absolute IC50
Procedure: as §1, §2, §3, §4, §5, §6, §7

MDA-MB-231 = assay: CellTiter-Glo cell viability, IC50 determination; conditions: Homo sapiens, 72 h; MDA-MB-231 cell line; 3-day CTG assay; read-out: Absolute IC50
Procedure: as §1, §2, §3, §4, §5, §6, §7

LS513 = assay: CellTiter-Glo cell viability, IC50 determination; conditions: Homo sapiens, LS-513, 72 h; LS513 cell line; 3-day CTG assay; read-out: Absolute IC50
Procedure: as §1, §2, §3, §4, §5, §6, §7

PL45 = assay: CellTiter-Glo cell viability, IC50 determination; conditions: 72 h; PL45 cell line; 3-day CTG assay; read-out: Absolute IC50
Procedure: as §1, §2, §3, §4, §5, §6, §7

PANC-1 = assay: CellTiter-Glo cell viability, IC50 determination; conditions: Homo sapiens, 72 h; PANC-1 cell line; 3-day CTG assay; read-out: Absolute IC50
Procedure: as §1, §2, §3, §4, §5, §6, §7

22RV1 = assay: CellTiter-Glo cell viability, IC50 determination; conditions: Homo sapiens, 72 h; 22RV1 cell line; 3-day CTG assay; read-out: Absolute IC50
Procedure: as §1, §2, §3, §4, §5, §6, §7

Sk-Hep-1 = assay: CellTiter-Glo cell viability, IC50 determination; conditions: Homo sapiens, SK-HEP1, 72 h; Sk-Hep-1 cell line; 3-day CTG assay; read-out: Absolute IC50
Procedure: as §1, §2, §3, §4, §5, §6, §7

HCC4006 = assay: CellTiter-Glo cell viability, IC50 determination; conditions: Homo sapiens, 72 h; HCC4006 cell line; 3-day CTG assay; read-out: Absolute IC50
Procedure: as §1, §2, §3, §4, §5, §6, §7

[1] = cells harboring mutations in ADAM12 gene
[2] = cells harboring mutations in TNN gene
[3] = cells harboring mutations in TP53 gene

IC50 (BxPc-3) | IC50 (MDA-MB-231) | IC50 (PANC-1) | IC50 (22RV1) | IC50 (HCC4006) | Compound | sensitivity to inhibitor in cells harboring mutations (panel of 50 cell lines; cells harboring multiple mutations in ADAM 12, PEX5L, TNN and TP53 gene) | sensitivity to inhibitor in cells harboring mutations (panel of 50 cell lines; [1]) | sensitivity to inhibitor in cells harboring mutations (panel of 50 cell lines; cells harboring mutations in PEX5L gene) | sensitivity to inhibitor in cells harboring mutations (panel of 50 cell lines; [2]) | sensitivity to inhibitor in cells harboring mutations (panel of 50 cell lines; [3]) | IC50 (KM12L4) | IC50 (LS513) | IC50 (PL45) | IC50 (Sk-Hep-1) | sensitivity to inhibitor in cells harboring mutations (panel of 50 cell lines; cells harboring multiple mutations in ADAM12, COL14A1, TNN, and TP53 gene) | sensitivity to inhibitor in cells harboring mutations (panel of 50 cell lines; cells harboring mutations in COL14A1 gene)
320 nM | 32300 nM | 64300 nM | 5010 nM | 2770 nM | O=C(Nc1ccc2[nH]nc(-c3ccncc3)c2c1)[C@@H]1CCN(CC(=O)N2CCN(c3ccc(-c4ncccn4)cc3)CC2)C1 [SCH772984, (R)-1-(2-oxo-2-(4-(4-(pyrimidin-2-yl)phenyl)piperazin-1-yl)ethyl)-N-(3-(pyridin-4-yl)-1H-indazol-5-yl)pyrrolidine-3-carboxamide] | increased sensitivity | increased sensitivity | increased sensitivity | increased sensitivity | increased sensitivity | 360 nM | 780 nM | 660 nM | 5290 nM |  | 
30 nM | 24000 nM | 330000 nM | 202000 nM | 410 nM | CC(=O)Nc1cccc(-n2c(=O)n(C3CC3)c(=O)c3c(Nc4ccc(I)cc4F)n(C)c(=O)c(C)c32)c1 [Trametinib, N-(3-{3-Cyclopropyl-5-[(2-fluoro-4-iodophenyl)amino]-6,8-dimethyl-2,4,7-trioxo-3,4,6,7-tetrahydropyrido[4,3-d]pyrimidin-1(2H)-yl}phenyl)acetamide] |  | increased sensitivity |  | increased sensitivity | increased sensitivity | 10 nM | 10 nM | 120 nM | 29100 nM | increased sensitivity | decreased sensitivity

From patent US10501805B2, “Methods for determining responsiveness to MEK/ERK inhibitors” (CROWN BIOSCIENCE, INC. (TAICANG), priority 2014, dated 2019)
